Compared with `O=C1c2cc([N+](=O)[O-])ccc2CCn2cccc21`, `CCCCc1csc2ccc([N+](=O)[O-])cc12` is lower in melting point: 190 to 192 °C for the first, 82 to 83 °C for the second.

First: CC1C(=O)N(c2ccc(S(C)(=O)=O)cc2)N=C1N (centres undefined)
Second: CS(=O)(=O)c1ccc(-c2cnn(CC(F)(F)F)c(=O)c2SCC(F)(F)F)cc1
The melting point of the first is higher: 239 to 240 °C for the first, 155 to 158 °C for the second.

First: CN1CCCC1=Cc1ccc(Br)cc1
Second: CN1C(=O)[C@@H](CN2CCCCC2)C[C@H]1c1ccc(-c2ccccc2Cl)s1
The melting point of the first is higher: 83 to 84 °C for the first, 73 to 75 °C for the second.

First: CNc1nc(Cl)ncc1[N+](=O)[O-]
Second: O=[N+]([O-])c1cnn(-c2ccc(Cl)nn2)c1
The melting point of the first is lower: 90 to 91 °C for the first, 169 to 172 °C for the second.

Compared with `CC(NS(=O)(=O)N1CCOCC1)P(=O)(c1ccccc1)c1ccccc1` (centres undefined), `O=C(Cc1cccc2ccccc12)N(O)[C@H](CN1CCCC1)c1ccccc1` is lower in melting point: 215 to 217 °C for the first, 81 to 83.5 °C for the second.

First: COc1ccc(C2(C#Cc3cccc(-c4nnc(C)o4)c3)CCCC(=O)C2)cc1OC1CCCC1 (centres undefined)
Second: Cc1nnc(-c2ccc3occ(-c4cccnc4)c3c2)o1
The melting point of the first is lower: 117 to 119 °C for the first, 139 to 140 °C for the second.

Compared with `COc1cc(Nc2ncc(C#N)c(-c3ccc(CO)cc3)n2)cc(OC)c1OC`, `COc1cc(OC)nc(Sc2nccc(-c3ccc(Cl)cc3)c2C(=O)O)n1` is higher in melting point: 188 to 191 °C for the first, 219 to 223 °C for the second.

First: CCOC(=O)/C=C1\C[C@@H]2c3cccc4[nH]cc(c34)C[C@H]2N(C)C1
Second: CCOC(=O)N1CCc2[nH]c(=O)n3nc(-c4ccccc4F)nc3c2C1
The melting point of the first is lower: 170 to 171 °C for the first, 307 to 311 °C for the second.

Compared with `Cc1ccc(S(=O)(=O)OCCCC(O)c2cccc3c(=O)c(C)c(-c4ccccc4)oc23)cc1` (centres undefined), `O=C(O)COc1ccc2cc(-c3csc(-c4ccccc4)n3)ccc2c1Br` is higher in melting point: 123 to 124 °C for the first, 222 to 230 °C for the second.

First: O=C1CC(c2cccc(-n3ccnc3)c2)=Nc2cc(O)c(C#Cc3ccc(F)cc3)cc2N1
Second: O=C(c1ccc(F)cc1C(F)(F)F)N1Cc2cccnc2Nc2ccccc21
The melting point of the first is higher: 247 °C for the first, 183 to 185 °C for the second.

First: CSc1ncc(C(=O)O)c(Nc2ccc3[nH]ncc3c2)n1
Second: O=C(c1cccs1)c1cnn2c(-c3cccc(F)c3)ccnc12
The melting point of the first is higher: over 270 °C for the first, 235 to 237 °C for the second.

Compared with `C#CCN(Cc1cc2c(=O)[nH]c(CO)nc2cc1Cl)c1ccc(C(=O)OC(C)(C)C)cc1`, `CCN1CCN(c2ccc(Nc3cc(-c4cccc(-n5ncc6cc(C(C)(C)C)cc(F)c6c5=O)c4CO)nn(C)c3=O)nc2)CC1` is higher in melting point: 185 to 187 °C for the first, 245 to 247 °C for the second.

First: COc1ccc(C=CC=O)cc1OC
Second: C=CCOC(=O)c1ccc(NC(C)=O)cc1O
The melting point of the first is lower: 74 to 77 °C for the first, 156 to 158 °C for the second.

First: CC1(c2ccccc2)Cc2cc(O)c(Cl)c(Cl)c2C1=O (centres undefined)
Second: CCc1ccc(-c2c(Cl)c(CCl)nc3sc4c(c23)CCN(C(=O)OCc2ccccc2)C4)cc1
The melting point of the first is higher: 194 to 196 °C for the first, 126 to 128 °C for the second.

First: O=C(O)CNC1=Nc2ccccc2C(c2ccccc2)=NC1NC(=O)Nc1ccc(Cl)cc1 (centres undefined)
Second: O=C(O)c1ccc(CO/N=C/c2cc3ccccc3n2Cc2ccccc2)cc1Br
The melting point of the first is higher: 186 °C for the first, 148 to 149 °C for the second.

First: O=C(O)C(=O)Nc1nccs1
Second: Cn1c(=O)[nH]c2ccsc2c1=O
The melting point of the first is lower: 174 to 177 °C for the first, 260 to 262 °C for the second.

First: O=[N+]([O-])c1cc2c(cc1O)CCCC2
Second: CNC(=S)C1(c2cccnc2)CCCCC1=CCOc1ccc(O)cc1 (centres undefined)
The melting point of the first is higher: 88 to 89 °C for the first, 82 to 88 °C for the second.

First: CCS(=O)(=O)CCC(=O)NCC(=O)N1Cc2ccccc2Oc2ccc(Cl)cc21
Second: C=C(c1ccccc1)c1cccc(NS(=O)(=O)C(F)(F)F)c1
The melting point of the first is higher: 108 to 109 °C for the first, 55 to 59 °C for the second.

Compared with `Cc1c(NC(=O)c2ccc(OC[C@@H]3CCCO3)cc2)ccc2cc(CNCC3CC3)cnc12`, `Cc1nc(-c2ccc(-c3ccc(C(=O)Nc4cc(OCCN(C)C)c(I)cc4I)cc3)c(C)c2)no1` is lower in melting point: 156 to 158 °C for the first, 69 to 71 °C for the second.

First: CCOC(=O)c1[nH]cnc1CC
Second: CCCCc1nc2c(N)nc3cccnc3c2n1CCCCNC(=O)OC(C)(C)C
The melting point of the first is higher: 170 to 172 °C for the first, 148 to 150 °C for the second.

First: O=C1OC(O)(C(F)(F)F)c2cccc(O)c21 (centres undefined)
Second: CC(C)(C)c1ccc2c(c1)OC(C(F)(F)C(F)(F)F)C(C(=O)O)=C2 (centres undefined)
The melting point of the first is lower: 128 to 129 °C for the first, 171 to 174 °C for the second.

Compared with `N#Cc1nn(-c2c(Cl)cc(C(F)(F)F)cc2Cl)cc1C(=O)C(F)(F)C(F)(F)F`, `CNc1cccc(-c2ccc3nnc(C)n3n2)c1` is higher in melting point: 120 °C for the first, 223 to 226 °C for the second.

First: O=C(OCc1cc(OCCCBr)c(OCCCBr)c(OCCCBr)c1)c1ccccc1
Second: O=C(OCc1ccccc1)C(CO)N(C(=O)Cc1ccccc1)C(=O)OCc1ccccc1 (centres undefined)
The melting point of the first is lower: 53 to 54 °C for the first, 59 to 60 °C for the second.

First: CN1C(C)(C)CC(O)CC1(C)C
Second: C#C[C@](C)(O)CCc1c(C)c(OC(C)=O)c(C)c(C)c1OC(C)=O
The melting point of the first is lower: 70 to 71 °C for the first, 96 to 102 °C for the second.

In the case of `COC(=O)[C@H](CSC(=O)[C@@H](C)c1ccc(CC(C)C)cc1)NC(C)=O`, the melting point is reported as 75 to 77 °C.

From a melting point compilation (Tetko et al.; mined from patent text by program, amines drawn as free bases though some values may be those of a salt)
